Measurements from patent US20230183237A1, “COMPETITIVE AND NONCOMPETITIVE INHIBITORS OF THE MUSCARINIC ACETYLCHOLINE RECEPTOR M5” (Vanderbilt University, priority 2020, published 2023).
pIC50: −log10 of the molar value.

Biological target: T1, hM5 (Homo sapiens, UniProt P08912)
T1 construct: expressed in transfected cells
T1 sequence (P08912 1-532): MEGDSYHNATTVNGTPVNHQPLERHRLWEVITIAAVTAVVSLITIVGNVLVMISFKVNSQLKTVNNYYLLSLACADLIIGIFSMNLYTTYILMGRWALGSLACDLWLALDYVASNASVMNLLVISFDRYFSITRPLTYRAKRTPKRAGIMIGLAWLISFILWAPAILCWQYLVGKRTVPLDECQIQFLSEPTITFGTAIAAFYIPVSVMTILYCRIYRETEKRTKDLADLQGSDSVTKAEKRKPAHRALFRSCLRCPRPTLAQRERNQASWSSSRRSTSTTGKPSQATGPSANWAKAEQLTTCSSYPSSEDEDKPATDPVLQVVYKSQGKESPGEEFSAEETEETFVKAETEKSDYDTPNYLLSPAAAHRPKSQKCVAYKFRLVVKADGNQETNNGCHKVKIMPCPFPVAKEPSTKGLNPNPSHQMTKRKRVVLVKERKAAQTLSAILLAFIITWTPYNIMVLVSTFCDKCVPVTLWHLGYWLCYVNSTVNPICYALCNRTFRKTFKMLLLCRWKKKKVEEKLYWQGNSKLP
Assay: Calcium mobilization concentration-response (IC50 vs EC80 acetylcholine), CHO hM5
Assay type: cell-based
Conditions: CELL LINE hM5; calcium mobilization, EC80 acetylcholine addition; read-out: IC50
In short: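 CHO cells stably expressing hM5, dye-loaded, in HBSS/20 mM HEPES/2.5 mM probenecid, pH 7.4. Compounds were pre-incubated 140 s before an EC80 acetylcholine challenge, with calcium flux read kinetically.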

Row | Structure (SMILES) | pIC50
1 | Cc1cc2nccn2nc1C1CCN(S(=O)(=O)c2ccc3c(c2)OCO3)CC1 [Compound 40, 6-(1-(benzo[d][1,3]dioxol-5-ylsulfonyl)piperidin-4-yl)-7-methylimidazo[1,2-b]pyridazine] | < 5.00
2 | Cc1cc2ncnn2nc1C1CCN(S(=O)(=O)c2ccc3c(c2)OCCO3)CC1 [Compound 184, 6-(1-((2,3-dihydrobenzo[b][1,4]dioxin-6-yl)sulfonyl)piperidin-4-yl)-7-methyl-[1,2,4]triazolo[1,5-b]pyridazine] | < 5.00
3 | O=S(=O)(c1ccc2c(c1)CCO2)N1CC=C(c2cc3c(cc2Cl)OCO3)CC1 [Compound 352, 4-(6-chlorobenzo[d][1,3]dioxol-5-yl)-1-((2,3-dihydrobenzofuran-5-yl)sulfonyl)-1,2,3,6-tetrahydropyridine] | < 5.00
4 | Cc1cc2ncnn2cc1C1CCN(S(=O)(=O)c2cn(C)cn2)CC1 [Compound 128, 7-methyl-6-(1-((1-methyl-1H-imidazol-4-yl)sulfonyl)piperidin-4-yl)-[1,2,4]triazolo[1,5-a]pyridine] | 5.89
5 | Cc1c(S(=O)(=O)N2CC=C(c3cc4c(cc3Cl)OCO4)CC2)cnn1C [Compound 350, 4-(6-chlorobenzo[d][1,3]dioxol-5-yl)-1-((1,5-dimethyl-1H-pyrazol-4-yl)sulfonyl)-1,2,3,6-tetrahydropyridine] | 7.96
6 | Cc1cc2nccn2nc1C1CCN(S(=O)(=O)c2cnc(C)n2C)CC1 [Compound 252, 6-(1-((1,2-dimethyl-1H-imidazol-5-yl)sulfonyl)piperidin-4-yl)-7-methylimidazo[1,2-b]pyridazine] | 6.91
7 | [2H]C([2H])([2H])n1cc(S(=O)(=O)N2CCC(c3cn4ncnc4cc3F)CC2)c(Cl)n1 [Compound 259, 6-(1-((3-chloro-1-(methyl-d3)-1H-pyrazol-4-yl)sulfonyl)piperidin-4-yl)-7-fluoro-[1,2,4]triazolo[1,5-a]pyridine] | 5.52
8 | Cc1cc2ncnn2cc1C1CCN(S(=O)(=O)c2c(C)nn(C)c2C(F)(F)F)CC1 [Compound 220, 6-(1-((1,3-dimethyl-5-(trifluoromethyl)-1H-pyrazol-4-yl)sulfonyl)piperidin-4-yl)-7-methyl-[1,2,4]triazolo[1,5-a]pyridine] | 7.42
9 | COc1cc2ncnn2cc1C1CCN(S(=O)(=O)c2cn(C)nc2C)CC1 [Compound 83, 6-(1-((1,3-dimethyl-1H-pyrazol-4-yl)sulfonyl)piperidin-4-yl)-7-methoxy-[1,2,4]triazolo[1,5-a]pyridine] | < 5.00
10 | COc1cc2ncnn2cc1C1CCN(S(=O)(=O)c2cnn3c2CCC3)CC1 [Compound 263, 6-(1-((5,6-dihydro-4H-pyrrolo[1,2-b]pyrazol-3-yl)sulfonyl)piperidin-4-yl)-7-methoxy-[1,2,4]triazolo[1,5-a]pyridine] | 5.85
11 | [2H]C1([2H])Oc2cc(C)c(C3CCN(S(=O)(=O)c4cnn5c4OCCC5)CC3)cc2OC1([2H])[2H] [Compound 393, 3-((4-(7-methyl-2,3-dihydrobenzo[b][1,4]dioxin-6-yl-2,2,3,3-d4)piperidin-1-yl)sulfonyl)-6,7-dihydro-5H-pyrazolo[5,1-b][1,3]oxazine] | 7.07
12 | COc1cc2ncnn2cc1C1CCN(S(=O)(=O)c2cc3c(cc2F)OCC3)CC1 [Compound 81, 6-(1-((6-fluoro-2,3-dihydrobenzofuran-5-yl)sulfonyl)piperidin-4-yl)-7-methoxy-[1,2,4]triazolo[1,5-a]pyridine] | < 5.00
13 | Cc1ccc(S(=O)(=O)N2CCC(c3cn4ccnc4cc3C)CC2)cn1 [Compound 69, 7-methyl-6-(1-((6-methylpyridin-3-yl)sulfonyl)piperidin-4-yl)imidazo[1,2-a]pyridine] | < 5.00
14 | Cc1cc(C#N)cnc1C1CCN(S(=O)(=O)c2cnn(C)c2C)CC1 [Compound 217, 6-(1-((1,5-Dimethyl-1H-pyrazol-4-yl)sulfonyl)piperidin-4-yl)-5-methylnicotinonitrile] | < 5.00
15 | Cc1c(C2CCN(S(=O)(=O)c3cnc4ccccn34)CC2)cn2ncnc2c1F [Compound 348, 8-fluoro-6-(1-(imidazo[1,2-a]pyridin-3-ylsulfonyl)piperidin-4-yl)-7-methyl-[1,2,4]triazolo[1,5-a]pyridine] | 7.30
16 | Cc1cc2ncnn2cc1C1(F)CCN(S(=O)(=O)c2cnn(C)c2C)CC1 [Compound 173, 6-(1-((1,5-dimethyl-1H-pyrazol-4-yl)sulfonyl)-4-fluoropiperidin-4-yl)-7-methyl-[1,2,4]triazolo[1,5-a]pyridine] | 7.09
17 | Cc1cc2ncnn2cc1C1CCN(S(=O)(=O)c2cnc(Cl)c(C)c2)CC1 [Compound 57, 6-(1-((6-chloro-5-methylpyridin-3-yl)sulfonyl)piperidin-4-yl)-7-methyl-[1,2,4]triazolo[1,5-a]pyridine] | 5.85
18 | Cc1cc2ncnn2nc1C1CCN(S(=O)(=O)c2cnc3n2CCC3)CC1 [Compound 208, 6-(1-((6,7-dihydro-5H-pyrrolo[1,2-a]imidazol-3-yl)sulfonyl)piperidin-4-yl)-7-methyl-[1,2,4]triazolo[1,5-b]pyridazine] | < 5.00
19 | Cc1nc(C(F)(F)F)c(S(=O)(=O)N2CCC(c3cn4ncnc4cc3C)CC2)s1 [Compound 129, 2-methyl-5-((4-(7-methyl-[1,2,4]triazolo[1,5-a]pyridin-6-yl)piperidin-1-yl)sulfonyl)-4-(trifluoromethyl)thiazole] | 5.42

Same assay, conditions: CELL LINE hM5; vs EC80 acetylcholine; read-out: IC50

Row | Structure (SMILES) | pIC50
20 | Cc1cnc2ccccc2c1C1=CCN(S(=O)(=O)c2cnn3c2OCCC3)CC1 [Compound 428, 3-((4-(3-methylquinolin-4-yl)-3,6-dihydropyridin-1(2H)-yl)sulfonyl)-6,7-dihydro-5H-pyrazolo[5,1-b][1,3]oxazine] | 7.20
21 | Cc1cc2ncnn2cc1C1(F)CCN(S(=O)(=O)c2cnn3c2OCCC3)CC1 [Compound 421, 3-((4-fluoro-4-(7-methyl-[1,2,4]triazolo[1,5-a]pyridin-6-yl)piperidin-1-yl)sulfonyl)-6,7-dihydro-5H-pyrazolo[5,1-b][1,3]oxazine] | 7.16
22 | Cc1c(C2CCN(S(=O)(=O)c3cnc4sccn34)CC2)cn2ncnc2c1F [Compound 533, 5-((4-(8-fluoro-7-methyl-[1,2,4]triazolo[1,5-a]pyridin-6-yl)piperidin-1-yl)sulfonyl)imidazo[2,1-b]thiazole] | 8.05
23 | Cc1c(C2CCN(S(=O)(=O)c3cn(C)nn3)CC2)cn2ncnc2c1F [Compound 558, 8-fluoro-7-methyl-6-(1-((1-methyl-1H-1,2,3-triazol-4-yl)sulfonyl)piperidin-4-yl)-[1,2,4]triazoto[1,5-a]pyridine] | 6.63
24 | Cc1cc(S(=O)(=O)N2CCC(c3cnc(N(C)C)cc3C)CC2)sn1 [Compound 565, N,N,4-trimethyl-5-(1-((3-methylisothiazol-5-yl)sulfonyl)piperidin-4-yl)pyridin-2-amine] | 7.42
25 | CCc1cc2ncnn2cc1C1CCN(S(=O)(=O)c2cnn(C)c2CC#N)CC1 [Compound 408, 2-(4-((4-(7-ethyl-[1,2,4]triazolo[1,5-a]pyridin-6-yl)piperidin-1-yl)sulfonyl)-1-methyl-1H-pyrazol-5-yl)acetonitrile] | 6.20
26 | Cc1cc(S(=O)(=O)N2CCC(c3cn4ncnc4cc3Cl)CC2)sn1 [Compound 483, 5-((4-(7-chloro-[1,2,4]triazolo[1,5-a]pyridin-6-yl)piperidin-1-yl)sulfonyl)-3-methylisothiazole] | 8.22
27 | Cn1ncc(S(=O)(=O)N2CC=C(c3c4ccccc4nn3C)CC2)c1C#N [Compound 490, 1-methyl-4-((4-(2-methyl-2H-indazol-3-yl)-3,6-dihydropyridin-1(2H)-yl)sulfonyl)-1H-pyrazole-5-carbonitrile] | 5.14
28 | [2H]C1([2H])CC(c2cn3ncnc3cc2F)CC([2H])([2H])N1S(=O)(=O)c1cnn(C)c1C(F)F [Compound 476, 6-(1-((5-(difluoromethyl)-1-methyl-1H-pyrazol-4-yl)sulfonyl)piperidin-4-yl-2,2,6,6-d4)-7-fluoro-[1,2,4]triazolo[1,5-a]pyridine] | 7.04
29 | [2H]c1nc2cc(Cl)c(C3=CCN(S(=O)(=O)c4cnc(C)s4)CC3)cn2n1 [Compound 611, 5-((4-(7-chloro-[1,2,4]triazolo[1,5-a]pyridin-6-yl-2-d)-3,6-dihydropyridin-1(2H)-yl)sulfonyl)-2-methylthiazole] | 7.01
30 | O=S(=O)(c1cnn2ccccc12)N1CCC(c2cn3ncnc3cc2F)CC1 [Compound 521, 7-fluoro-6-(1-(pyrazolo[1,5-a]pyridin-3-ylsulfonyl)piperidin-4-yl)-[1,2,4]triazolo[1,5-a]pyridine] | 6.77
31 | Cn1cc(S(=O)(=O)N2CCC(c3cn4ncnc4cc3Cl)CC2)nn1 [Compound 557, 7-chloro-6-(1-((1-methyl-1H-1,2,3-triazol-4-yl)sulfonyl)piperidin-4-yl)-[1,2,4]triazolo[1,5-a]pyridine] | 7.60
32 | Cc1c(C2CCN(S(=O)(=O)c3cnc(Cl)s3)CC2)cn2ncnc2c1F [Compound 534, 2-chloro-5-((4-(8-fluoro-7-methyl-[1,2,4]triazolo[1,5-a]pyridin-6-yl)piperidin-1-yl)sulfonyl)thiazole] | 5.78
